{"source": "paper PMC5218480", "about": "(PLoS ONE, 2017)", "test_system": "MV-4-11 cells", "assay": "Gene expression microarray analysis (Affymetrix PrimeView) and GSEA", "format": "cell-based, human", "set-up": "RFU PODN (11730768_x_at) / Fold change /veh PODN (11730768_x_at) / RFU LINC00158 (11744669_a_at) / Fold change /veh LINC00158 (11744669_a_at) / RFU DUSP10 (11751237_a_at) / Fold change /veh DUSP10 (11751237_a_at) / RFU ID3 (11757404_x_at) / Fold change /veh ID3 (11757404_x_at) / RFU PLEKHG5 (11737974_s_at) / Fold change /veh PLEKHG5 (11737974_s_at) / RFU LRRC4B (11730491_at) / Fold change /veh LRRC4B (11730491_at) / RFU GIMAP4 (11747438_a_at) / Fold change /veh GIMAP4 (11747438_a_at) / RFU KRT8 (11758183_x_at) / Fold change /veh KRT8 (11758183_x_at) / RFU CNN1 (11734310_a_at) / Fold change /veh CNN1 (11734310_a_at) / RFU VPS37D (11726825_at) / Fold change /veh VPS37D (11726825_at) / RFU C10orf10 (11716522_x_at) / Fold change /veh C10orf10 (11716522_x_at) / RFU KIR2DL2 /// KIR2DL4 /// KIR2DL5A /// KIR2DL5B /// KIR2DS1 /// KIR2DS2 /// KIR2DS3 /// KIR2DS4 /// KIR3DL3 /// KIR3DL3 /// KIR3DS1 (11738374_at) / Fold change /veh KIR2DL2 /// KIR2DL4 /// KIR2DL5A /// KIR2DL5B /// KIR2DS1 /// KIR2DS2 /// KIR2DS3 /// KIR2DS4 /// KIR3DL3 /// KIR3DL3 /// KIR3DS1 (11738374_at) / RFU C1QL1 (11718748_at) / Fold change /veh C1QL1 (11718748_at) / RFU TMPRSS4 (11747572_a_at) / Fold change /veh TMPRSS4 (11747572_a_at) / RFU HAMP (11756126_x_at) / Fold change /veh HAMP (11756126_x_at) / RFU RNFT2 (11725882_a_at) / Fold change /veh RNFT2 (11725882_a_at) / RFU NR4A2 (11747474_a_at) / Fold change /veh NR4A2 (11747474_a_at) / RFU ABCC12 (11746883_a_at) / Fold change /veh ABCC12 (11746883_a_at) / RFU TMEM136 (11760407_x_at) / Fold change /veh TMEM136 (11760407_x_at) / RFU CLDN22 /// WWC2 (11732394_at) / Fold change /veh CLDN22 /// WWC2 (11732394_at) / RFU HLA-DPB1 (11760878_x_at) / Fold change /veh HLA-DPB1 (11760878_x_at) / RFU SPINT1 (11716480_a_at) / Fold change /veh SPINT1 (11716480_a_at) / RFU GAP43 (11754022_s_at) / Fold change /veh GAP43 (11754022_s_at) / RFU A4GNT (11735810_at) / Fold change /veh A4GNT (11735810_at) / RFU PRB3 (11715151_x_at) / Fold change /veh PRB3 (11715151_x_at) / RFU TUBB4B (11761932_at) / Fold change /veh TUBB4B (11761932_at) / RFU CAPN14 (11732068_a_at) / Fold change /veh CAPN14 (11732068_a_at) / RFU TMCC2 (11721928_a_at) / Fold change /veh TMCC2 (11721928_a_at) / RFU IRGQ (11745062_a_at) / Fold change /veh IRGQ (11745062_a_at) / RFU FAM174B (11720279_a_at) / Fold change /veh FAM174B (11720279_a_at) / RFU TMPRSS4 (11748680_a_at) / Fold change /veh TMPRSS4 (11748680_a_at) / RFU FAM212B (11763350_a_at) / Fold change /veh FAM212B (11763350_a_at) / RFU PLEKHG5 (11743358_a_at) / Fold change /veh PLEKHG5 (11743358_a_at) / RFU ZSCAN30 (11745921_a_at) / Fold change /veh ZSCAN30 (11745921_a_at) / RFU CMKLR1 (11741424_a_at) / Fold change /veh CMKLR1 (11741424_a_at) / RFU LOC101060620 /// MAPK8IP1 (11723275_at) / Fold change /veh LOC101060620 /// MAPK8IP1 (11723275_at) / RFU SPTSSB (11747773_x_at) / Fold change /veh SPTSSB (11747773_x_at) / RFU PRSS12 (11739890_at) / Fold change /veh PRSS12 (11739890_at) / RFU BIN1 (11741810_x_at) / Fold change /veh BIN1 (11741810_x_at) / RFU WNT11 (11732464_a_at) / Fold change /veh WNT11 (11732464_a_at) / RFU C10orf10 (11716521_a_at) / Fold change /veh C10orf10 (11716521_a_at) / RFU C5orf56 (11738089_at) / Fold change /veh C5orf56 (11738089_at) / RFU CYB561 (11721691_x_at) / Fold change /veh CYB561 (11721691_x_at) / RFU ANKRD19P (11752326_a_at) / Fold change /veh ANKRD19P (11752326_a_at) / RFU OR2T12 /// OR2T33 /// OR2T8 (11738714_s_at) / Fold change /veh OR2T12 /// OR2T33 /// OR2T8 (11738714_s_at) / RFU VCAN (11748164_a_at) / Fold change /veh VCAN (11748164_a_at) / RFU JSRP1 (11732532_at) / Fold change /veh JSRP1 (11732532_at) / RFU KRTAP10-11 (11738290_x_at) / Fold change /veh KRTAP10-11 (11738290_x_at) / RFU MYO3A (11730013_a_at) / Fold change /veh MYO3A (11730013_a_at) / RFU EBF3 (11725865_a_at) / Fold change /veh EBF3 (11725865_a_at) / RFU CAMK2N1 (11719241_x_at) / Fold change /veh CAMK2N1 (11719241_x_at) / RFU C5orf56 (11738088_a_at) / Fold change /veh C5orf56 (11738088_a_at) / RFU OLFML3 (11715873_a_at) / Fold change /veh OLFML3 (11715873_a_at) / RFU LOC100653217 /// NTM (11731650_a_at) / Fold change /veh LOC100653217 /// NTM (11731650_a_at) / RFU MAPK11 (11762145_a_at) / Fold change /veh MAPK11 (11762145_a_at) / RFU FIZ1 (11724087_x_at) / Fold change /veh FIZ1 (11724087_x_at) / RFU OASL (11726364_x_at) / Fold change /veh OASL (11726364_x_at) / RFU SOX15 (11748057_x_at) / Fold change /veh SOX15 (11748057_x_at) / RFU CD79A (11719716_a_at) / Fold change /veh CD79A (11719716_a_at) / RFU HIST1H1D (11736915_at) / Fold change /veh HIST1H1D (11736915_at) / RFU CASKIN2 (11723855_a_at) / Fold change /veh CASKIN2 (11723855_a_at) / RFU LOC730098 (11760151_x_at) / Fold change /veh LOC730098 (11760151_x_at) / RFU OR4N2 (11742367_at) / Fold change /veh OR4N2 (11742367_at) / RFU PRRT2 (11749266_a_at) / Fold change /veh PRRT2 (11749266_a_at) / RFU SNX32 (11753110_a_at) / Fold change /veh SNX32 (11753110_a_at) / RFU CDHR5 (11726645_a_at) / Fold change /veh CDHR5 (11726645_a_at) / RFU RCAN1 (11760418_a_at) / Fold change /veh RCAN1 (11760418_a_at) / RFU FAM167A (11723789_a_at) / Fold change /veh FAM167A (11723789_a_at) / RFU FAM26E (11764081_at) / Fold change /veh FAM26E (11764081_at) / RFU ISYNA1 (11749810_s_at) / Fold change /veh ISYNA1 (11749810_s_at) / RFU ACY1 (11761880_at) / Fold change /veh ACY1 (11761880_at) / RFU 11764098_at / Fold change /veh 11764098_at / RFU SAMD14 (11745864_x_at) / Fold change /veh SAMD14 (11745864_x_at) / RFU NPB (11741838_a_at) / Fold change /veh NPB (11741838_a_at) / RFU TMPRSS6 (11731388_a_at) / Fold change /veh TMPRSS6 (11731388_a_at) / RFU KRTAP10-2 (11738614_at) / Fold change /veh KRTAP10-2 (11738614_at) / RFU ARHGAP8 /// PRR5-ARHGAP8 (11727945_x_at) / Fold change /veh ARHGAP8 /// PRR5-ARHGAP8 (11727945_x_at) / RFU KRTAP5-7 /// NADSYN1 (11734609_at) / Fold change /veh KRTAP5-7 /// NADSYN1 (11734609_at) / RFU RASL12 (11751679_a_at) / Fold change /veh RASL12 (11751679_a_at) / RFU CDKN2B (11736163_a_at) / Fold change /veh CDKN2B (11736163_a_at) / RFU PRF1 (11729649_at) / Fold change /veh PRF1 (11729649_at) / RFU, ZNF638 /// ZNF638-IT1 / Fold change vs veh, ZNF638 /// ZNF638-IT1 / RFU, PANK3 / Fold change vs veh, PANK3 / RFU, SH3YL1 / Fold change vs veh, SH3YL1 / RFU, ZEB2 / Fold change vs veh, ZEB2 / RFU, NRIP1 / Fold change vs veh, NRIP1 / RFU, PTTG1IP / Fold change vs veh, PTTG1IP / RFU, CAPN2 / Fold change vs veh, CAPN2 / RFU, MED14 / Fold change vs veh, MED14 / RFU, SNORA58 / Fold change vs veh, SNORA58 / RFU, C1orf63 / Fold change vs veh, C1orf63 / RFU, LRRFIP1 / Fold change vs veh, LRRFIP1 / RFU, NDUFAF7 / Fold change vs veh, NDUFAF7 / RFU, SLC12A2 / Fold change vs veh, SLC12A2 / RFU, IBTK / Fold change vs veh, IBTK / RFU, ESF1 / Fold change vs veh, ESF1 / Fold change vs veh, TMEM50B / RFU, TAOK1 / Fold change vs veh, TAOK1 / RFU, ACBD3 / Fold change vs veh, ACBD3 / RFU, TMA16 / Fold change vs veh, TMA16 / RFU, RWDD3 / Fold change vs veh, RWDD3 / RFU, BCAT1 / Fold change vs veh, BCAT1 / RFU, EDEM3 / Fold change vs veh, EDEM3 / RFU, TMEM33 / Fold change vs veh, TMEM33 / RFU, WDR75 / Fold change vs veh, WDR75 / RFU, AHCTF1 / Fold change vs veh, AHCTF1 / RFU, TFRC / Fold change vs veh, TFRC / RFU, ZDHHC17 / Fold change vs veh, ZDHHC17 / RFU, NOM1 / Fold change vs veh, NOM1 / RFU, ARL8B / Fold change vs veh, ARL8B / RFU, ZBTB11 / Fold change vs veh, ZBTB11 / RFU, TAMM41 / Fold change vs veh, TAMM41 / RFU, KIAA1704 /// LOC100996395 / Fold change vs veh, KIAA1704 /// LOC100996395 / RFU, ING1 / Fold change vs veh, ING1 / RFU, TRMT61B / Fold change vs veh, TRMT61B / RFU, FUBP3 / Fold change vs veh, FUBP3 / RFU, TP53 / Fold change vs veh, TP53 / RFU, TNKS2 / Fold change vs veh, TNKS2 / RFU, ZFP14 / Fold change vs veh, ZFP14 / RFU, ACTR2 / Fold change vs veh, ACTR2 / RFU, PPP3R1 / Fold change vs veh, PPP3R1 / RFU, PIK3R1 / Fold change vs veh, PIK3R1 / RFU, HNRNPA1 / Fold change vs veh, HNRNPA1 / RFU, RNF170 / Fold change vs veh, RNF170 / RFU, ZNF28 / Fold change vs veh, ZNF28 / RFU, RNGTT / Fold change vs veh, RNGTT / RFU, OGT / Fold change vs veh, OGT / RFU, BRD1 / Fold change vs veh, BRD1 / RFU, MARS / Fold change vs veh, MARS / RFU, ZNF655 / Fold change vs veh, ZNF655 / RFU, FAHD1 / Fold change vs veh, FAHD1 / RFU, BDP1 / Fold change vs veh, BDP1 / RFU, LRRCC1 / Fold change vs veh, LRRCC1 / RFU, ARID1A / Fold change vs veh, ARID1A / RFU, ZNF146 / Fold change vs veh, ZNF146 / RFU, ZNF330 / Fold change vs veh, ZNF330 / RFU, GPN3 / Fold change vs veh, GPN3 / RFU, C9orf123 / Fold change vs veh, C9orf123 / RFU, N4BP2L2 / Fold change vs veh, N4BP2L2 / RFU, ARFIP1 / Fold change vs veh, ARFIP1 / RFU, FAM179B / Fold change vs veh, FAM179B / RFU, BCL10 / Fold change vs veh, BCL10 / RFU, UHRF1BP1L / Fold change vs veh, UHRF1BP1L / RFU, BET1 / Fold change vs veh, BET1 / RFU, CNOT2 / Fold change vs veh, CNOT2 / RFU, ZNF268 / Fold change vs veh, ZNF268 / Fold change vs veh, ZNF507 / RFU, DGCR2 / Fold change vs veh, DGCR2 / RFU, WDSUB1 / Fold change vs veh, WDSUB1 / Fold change vs veh, HSP90B1 /// MIR3652 / RFU, ADSS / Fold change vs veh, ADSS / RFU, GK / Fold change vs veh, GK / RFU, ZNF148 / Fold change vs veh, ZNF148 / RFU, TAF9 / Fold change vs veh, TAF9 / RFU, SLC1A5 / Fold change vs veh, SLC1A5 / RFU, SLMO2 / Fold change vs veh, SLMO2 / RFU, ABCC4 / Fold change vs veh, ABCC4 / RFU, LOC101060439 /// RAP1B / Fold change vs veh, LOC101060439 /// RAP1B / RFU, RFX7 / Fold change vs veh, RFX7 / RFU, GTPBP10 / Fold change vs veh, GTPBP10 / RFU, CNEP1R1 / Fold change vs veh, CNEP1R1 / RFU, BIVM-ERCC5 /// ERCC5 / Fold change vs veh, BIVM-ERCC5 /// ERCC5 / RFU, ILF3 / Fold change vs veh, ILF3 / RFU 11762660_at / Fold change /veh 11762660_at / RFU VCAN (11757783_s_at) / Fold change /veh VCAN (11757783_s_at) / RFU DDX43 (11728927_at) / Fold change /veh DDX43 (11728927_at) / RFU KRT8 (11758188_x_at) / Fold change /veh KRT8 (11758188_x_at) / RFU NKD1 (11759106_at) / Fold change /veh NKD1 (11759106_at) / RFU SRD5A1 (11742802_a_at) / Fold change /veh SRD5A1 (11742802_a_at) / RFU TPSAB1 /// TPSB2 (11721975_s_at) / Fold change /veh TPSAB1 /// TPSB2 (11721975_s_at) / RFU GSTM3 (11746129_a_at) / Fold change /veh GSTM3 (11746129_a_at) / RFU IL23R (11737362_x_at) / Fold change /veh IL23R (11737362_x_at) / RFU TMEM51 (11727254_a_at) / Fold change /veh TMEM51 (11727254_a_at) / RFU PIWIL2 (11732686_x_at) / Fold change /veh PIWIL2 (11732686_x_at) / RFU ORM1 (11744905_x_at) / Fold change /veh ORM1 (11744905_x_at) / RFU CCDC152 (11743942_at) / Fold change /veh CCDC152 (11743942_at) / RFU ECM1 (11717891_a_at) / Fold change /veh ECM1 (11717891_a_at) / RFU IL23R (11748794_a_at) / Fold change /veh IL23R (11748794_a_at) / RFU TNFAIP8L3 (11732012_x_at) / Fold change /veh TNFAIP8L3 (11732012_x_at) / RFU MBOAT4 (11741988_at) / Fold change /veh MBOAT4 (11741988_at) / RFU 11764193_at / Fold change /veh 11764193_at / RFU TMEM53 (11763286_at) / Fold change /veh TMEM53 (11763286_at) / RFU MAGEB2 (11727129_at) / Fold change /veh MAGEB2 (11727129_at) / RFU TMEM200A (11744735_a_at) / Fold change /veh TMEM200A (11744735_a_at) / RFU CCDC152 (11751479_a_at) / Fold change /veh CCDC152 (11751479_a_at) / RFU FAM211A (11726209_a_at) / Fold change /veh FAM211A (11726209_a_at) / RFU RGS16 (11746705_a_at) / Fold change /veh RGS16 (11746705_a_at) / RFU VCAN (11755009_s_at) / Fold change /veh VCAN (11755009_s_at) / RFU RHOB (11743442_s_at) / Fold change /veh RHOB (11743442_s_at) / RFU RGS16 (11720943_a_at) / Fold change /veh RGS16 (11720943_a_at) / RFU RGS16 (11720944_at) / Fold change /veh RGS16 (11720944_at) / RFU, VPS4B / Fold change vs veh, VPS4B / RFU, CREB1 / Fold change vs veh, CREB1 / RFU, DNAJC13 / Fold change vs veh, DNAJC13 / RFU, GNAQ / Fold change vs veh, GNAQ / RFU, CDK5R1 / Fold change vs veh, CDK5R1 / RFU, ZRANB3 / Fold change vs veh, ZRANB3 / RFU, CUL4A / Fold change vs veh, CUL4A / RFU, CCNY / Fold change vs veh, CCNY / RFU, UFL1 / Fold change vs veh, UFL1 / RFU, COG3 / Fold change vs veh, COG3 / RFU, DIAPH2 / Fold change vs veh, DIAPH2 / RFU, SKA2 / Fold change vs veh, SKA2 / RFU, AFF3 / Fold change vs veh, AFF3 / RFU, LMF1 / Fold change vs veh, LMF1 / RFU, IPO11 / Fold change vs veh, IPO11 / RFU, DFFB / Fold change vs veh, DFFB / RFU, FOXP1 / Fold change vs veh, FOXP1 / RFU, CARD8 / Fold change vs veh, CARD8 / RFU, STRN3 / Fold change vs veh, STRN3 / RFU, ADK / Fold change vs veh, ADK / RFU, RASSF2 / Fold change vs veh, RASSF2 / RFU, WIPF1 / Fold change vs veh, WIPF1 / RFU, LARP1B / Fold change vs veh, LARP1B / RFU, RASA1 / Fold change vs veh, RASA1 / RFU, RB1 / Fold change vs veh, RB1 / RFU, PPFIA1 / Fold change vs veh, PPFIA1 / RFU, MAT2A / Fold change vs veh, MAT2A / RFU, CCT5 / Fold change vs veh, CCT5 / RFU, WDR92 / Fold change vs veh, WDR92 / RFU, CUX1 / Fold change vs veh, CUX1 / RFU, TTC7A / Fold change vs veh, TTC7A / RFU, TMEM135 / Fold change vs veh, TMEM135 / RFU, DEPTOR / Fold change vs veh, DEPTOR / RFU, CPM / Fold change vs veh, CPM / RFU, DNAJB6 / Fold change vs veh, DNAJB6 / RFU, CACNA2D3 / Fold change vs veh, CACNA2D3 / RFU, DTX4 / Fold change vs veh, DTX4 / RFU, TFCP2 / Fold change vs veh, TFCP2 / RFU, GMCL1 /// GMCL1P1 / Fold change vs veh, GMCL1 /// GMCL1P1 / RFU, AEBP2 / Fold change vs veh, AEBP2 / RFU, SNHG1 /// SNORD22 /// SNORD25 /// SNORD26 /// SNORD27 /// SNORD28 /// SNORD29 /// SNORD31 / Fold change vs veh, SNHG1 /// SNORD22 /// SNORD25 /// SNORD26 /// SNORD27 /// SNORD28 /// SNORD29 /// SNORD31 / Fold change (Aza/veh), C12orf56 (ProbeSet 11735607_a_at) / Fold change (ACY-1035/veh), C12orf56 (ProbeSet 11735607_a_at) / Fold change (Aza/veh), FGFR1OP (ProbeSet 11751329_s_at) / Fold change (ACY-1035/veh), FGFR1OP (ProbeSet 11751329_s_at) / Fold change (Aza/veh), VPS36 (ProbeSet 11739960_a_at) / Fold change (ACY-1035/veh), VPS36 (ProbeSet 11739960_a_at) / RFU SYPL1 (11715823_x_at) / Fold change /veh SYPL1 (11715823_x_at) / RFU IGFBP7 (11715501_s_at) / Fold change /veh IGFBP7 (11715501_s_at) / RFU REEP3 (11722064_at) / Fold change /veh REEP3 (11722064_at) / RFU IGLL1 (11728026_x_at) / Fold change /veh IGLL1 (11728026_x_at): dose or concentration left out as unconfirmed", "conditions": "ProbeSet 11741199_a_at; LIST B"}
{"smiles": "Nc1ncn([C@@H]2O[C@H](CO)[C@@H](O)[C@H]2O)c(=O)n1", "note": "[azacitidine]", "values": [{"measurement": "Fold change vs veh, LRRCC1", "value": 0.97}]}
